Results from PubChem BioAssay (NCI).
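Results reflect a 48-hour exposure of cells in 96-well plates to compound at five concentrations. The concentration for full growth arrest is given as TGI.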

Assays:
Assay in all cases: NCI-60 cell line screen, 48 h
COLO 205 colon = tested on: COLO 205 colon
T-47D breast = tested on: T-47D breast
OVCAR-5 ovarian = tested on: OVCAR-5 ovarian
TK-10 renal = tested on: TK-10 renal
MDA-MB-231 breast = tested on: MDA-MB-231 breast
NCI/ADR-RES ovarian = tested on: NCI/ADR-RES ovarian
UACC-62 melanoma = tested on: UACC-62 melanoma
SF-295 CNS = tested on: SF-295 CNS
UO-31 renal = tested on: UO-31 renal
SN12C renal = tested on: SN12C renal
IGROV1 ovarian = tested on: IGROV1 ovarian
HL-60(TB) leukemia = tested on: HL-60(TB) leukemia
HCC-2998 colon = tested on: HCC-2998 colon
SF-539 CNS = tested on: SF-539 CNS
UACC-257 melanoma = tested on: UACC-257 melanoma
A498 renal = tested on: A498 renal

For `O=C(Nc1ccccc1)N(C1=NCC(CI)S1)c1ccc(F)cc1F` (stereo unspecified), the TGI (COLO 205 colon) was greater than 100 µM, the TGI (T-47D breast) was greater than 100 µM and the TGI (OVCAR-5 ovarian) was greater than 100 µM. The TGI (TK-10 renal) was greater than 100 µM, the TGI (MDA-MB-231 breast) was 78.4 µM and the TGI (NCI/ADR-RES ovarian) was greater than 100 µM. For the same compound, the TGI (UACC-62 melanoma) was greater than 100 µM, the TGI (SF-295 CNS) was greater than 100 µM and the TGI (UO-31 renal) was greater than 100 µM. For the same compound, the TGI (SN12C renal) was greater than 100 µM, the TGI (IGROV1 ovarian) was 52 µM and the TGI (HL-60(TB) leukemia) was 48 µM. The TGI (HCC-2998 colon) was greater than 100 µM, the TGI (SF-539 CNS) was greater than 100 µM and the TGI (UACC-257 melanoma) was 84 µM.

For `O=C(N=Nc1cccc(Cl)c1)NNc1cccc(Cl)c1`, the TGI (T-47D breast) was greater than 100 µM, the TGI (OVCAR-5 ovarian) was 46.5 µM and the TGI (TK-10 renal) was 66.6 µM. It also gave a TGI (A498 renal) of 44.9 µM, a TGI (MDA-MB-231 breast) of 74.6 µM and a TGI (UACC-62 melanoma) of 24.1 µM. For the same compound, the TGI (UO-31 renal) was 45.5 µM, the TGI (SN12C renal) was 35.9 µM and the TGI (IGROV1 ovarian) was 43.3 µM. The TGI (HL-60(TB) leukemia) was 41.7 µM, the TGI (HCC-2998 colon) was 28.9 µM and the TGI (UACC-257 melanoma) was 54.3 µM.

Work on `O=C(O)c1cc(/C=C/c2cc(O)ccc2O)ccc1O` yielded a TGI (OVCAR-5 ovarian) greater than 10 µM, a TGI (TK-10 renal) greater than 10 µM and a TGI (MDA-MB-231 breast) greater than 10 µM. The TGI (NCI/ADR-RES ovarian) was greater than 10 µM, the TGI (UACC-62 melanoma) was greater than 10 µM and the TGI (SF-295 CNS) was greater than 10 µM. It also gave a TGI (UO-31 renal) greater than 10 µM, a TGI (SN12C renal) greater than 10 µM and a TGI (HL-60(TB) leukemia) greater than 10 µM. For the same compound, the TGI (HCC-2998 colon) was greater than 10 µM, the TGI (SF-539 CNS) was greater than 10 µM and the TGI (UACC-257 melanoma) was greater than 10 µM.

`CC(C)(C)OC(=O)NCCc1cccc2c1oc1c(CCC(=O)O)cccc12` was tested, and the TGI (COLO 205 colon) was greater than 100 µM, the TGI (OVCAR-5 ovarian) was greater than 100 µM and the TGI (TK-10 renal) was greater than 100 µM. It also gave a TGI (A498 renal) greater than 100 µM, a TGI (UACC-62 melanoma) greater than 100 µM and a TGI (SF-295 CNS) greater than 100 µM. The TGI (UO-31 renal) was greater than 100 µM, the TGI (SN12C renal) was greater than 100 µM and the TGI (IGROV1 ovarian) was greater than 100 µM. For the same compound, the TGI (HL-60(TB) leukemia) was greater than 100 µM, the TGI (HCC-2998 colon) was greater than 100 µM and the TGI (SF-539 CNS) was greater than 100 µM. The TGI (UACC-257 melanoma) was greater than 100 µM.

For `CC(NC(=O)c1ccccc1)NC(=O)C(C)C(=O)Nc1ccccc1` (stereo unspecified), the TGI (COLO 205 colon) was greater than 100 µM, the TGI (T-47D breast) was greater than 100 µM and the TGI (OVCAR-5 ovarian) was greater than 100 µM. The TGI (TK-10 renal) was greater than 100 µM, the TGI (MDA-MB-231 breast) was greater than 100 µM and the TGI (NCI/ADR-RES ovarian) was greater than 100 µM. The TGI (UACC-62 melanoma) was greater than 100 µM, the TGI (SF-295 CNS) was greater than 100 µM and the TGI (UO-31 renal) was greater than 100 µM. It also gave a TGI (SN12C renal) greater than 100 µM, a TGI (IGROV1 ovarian) greater than 100 µM and a TGI (HL-60(TB) leukemia) greater than 100 µM. The TGI (SF-539 CNS) was greater than 100 µM and the TGI (UACC-257 melanoma) was greater than 100 µM.

`Cc1nc(N/N=C/c2ccccc2Cl)[nH]c(=O)c1CCO` showed a TGI (COLO 205 colon) greater than 100 µM, a TGI (T-47D breast) greater than 100 µM and a TGI (OVCAR-5 ovarian) greater than 100 µM. For the same compound, the TGI (TK-10 renal) was greater than 100 µM, the TGI (MDA-MB-231 breast) was greater than 100 µM and the TGI (NCI/ADR-RES ovarian) was greater than 100 µM. The TGI (UACC-62 melanoma) was greater than 100 µM, the TGI (SF-295 CNS) was 96 µM and the TGI (UO-31 renal) was greater than 100 µM. The TGI (SN12C renal) was greater than 100 µM, the TGI (IGROV1 ovarian) was greater than 100 µM and the TGI (HL-60(TB) leukemia) was greater than 100 µM. For the same compound, the TGI (HCC-2998 colon) was greater than 100 µM, the TGI (SF-539 CNS) was greater than 100 µM and the TGI (UACC-257 melanoma) was greater than 100 µM.

`COc1ccc(C(CC(=O)C(C)(C)CN2CCCCC2)SCCS(=O)(=O)O)cc1` (stereo unspecified) gave a TGI (COLO 205 colon) greater than 100 µM, a TGI (OVCAR-5 ovarian) greater than 100 µM and a TGI (TK-10 renal) greater than 100 µM. The TGI (A498 renal) was 74.3 µM, the TGI (MDA-MB-231 breast) was 75.1 µM and the TGI (NCI/ADR-RES ovarian) was greater than 100 µM. The TGI (UACC-62 melanoma) was greater than 100 µM, the TGI (SF-295 CNS) was greater than 100 µM and the TGI (UO-31 renal) was greater than 100 µM. The TGI (SN12C renal) was greater than 100 µM, the TGI (IGROV1 ovarian) was greater than 100 µM and the TGI (HL-60(TB) leukemia) was 67 µM. It also gave a TGI (HCC-2998 colon) greater than 100 µM, a TGI (SF-539 CNS) of 38.8 µM and a TGI (UACC-257 melanoma) greater than 100 µM.

Compound `COc1cc(OC)c2nc(C)c3c(c2c1)NCC3` has a TGI (COLO 205 colon) of 17.1 µM, a TGI (OVCAR-5 ovarian) of 25.6 µM and a TGI (TK-10 renal) of 35.7 µM. It also gave a TGI (A498 renal) of 27.7 µM, a TGI (MDA-MB-231 breast) of 21.8 µM and a TGI (NCI/ADR-RES ovarian) of 71.2 µM. For the same compound, the TGI (UACC-62 melanoma) was 22.4 µM, the TGI (SF-295 CNS) was 28.9 µM and the TGI (UO-31 renal) was 27.5 µM. It also gave a TGI (SN12C renal) of 18.9 µM, a TGI (IGROV1 ovarian) of 34 µM and a TGI (HL-60(TB) leukemia) of 40.7 µM. The TGI (HCC-2998 colon) was 20.3 µM, the TGI (SF-539 CNS) was 16.4 µM and the TGI (UACC-257 melanoma) was 15.9 µM.
